Assay results taken from ChEMBL document CHEMBL4387717, “Structure guided drug design to develop kallikrein 5 inhibitors to treat Netherton syndrome” (Bioorg Med Chem Lett, 2019).
Values after ≈ are worked out from the molar mass of the structure shown.

Key:
Homo sapiens [1] = species: Homo sapiens; assay: (§1) Selectivity index, ratio of compound effect for inhibition of recombinant C-terminal 6-His tagged human KLKB1 (Gly20 to Ala638 residues) expressed in mouse NS0 cells to compound effect for inhibition of recombinant 6His-Q-FLAG tagged human KLK5 expressed in baculovirus infected insect Sf9 cells
Kallikrein-8 = target: T1, Kallikrein-8 (Homo sapiens, UniProt O60259); assay: Inhibition of recombinant C-terminal 10-His tagged human KLK8 (Gln29 to Gly260 residues) expressed in mouse NS0 cells using BOC-VPR-AMC as substrate after 40 mins by fluorescence intensity assay
T1 sequence (O60259 whole entry): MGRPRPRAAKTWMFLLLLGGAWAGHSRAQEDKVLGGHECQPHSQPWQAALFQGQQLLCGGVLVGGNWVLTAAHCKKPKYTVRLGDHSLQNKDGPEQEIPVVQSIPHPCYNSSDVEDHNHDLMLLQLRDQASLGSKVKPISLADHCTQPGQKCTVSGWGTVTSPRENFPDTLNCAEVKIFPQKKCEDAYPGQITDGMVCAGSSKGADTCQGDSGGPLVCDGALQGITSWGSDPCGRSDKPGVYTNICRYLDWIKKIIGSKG

Homo sapiens [2] = species: Homo sapiens; assay: as §1, with “10-His” for “6-His”, “coagulation factor 10a (Leu24” for “KLKB1 (Gly20”, “Lys488” for “Ala638”, “baculovirus infected insect Sf9” for “mouse NS0”
Homo sapiens [3] = species: Homo sapiens; assay: Selectivity index, ratio of compound effect for inhibition of human neutrophil elastase to compound effect for inhibition of recombinant 6His-Q-FLAG tagged human KLK5 expressed in baculovirus infected insect Sf9 cells
Kallikrein-1 = Kallikrein-1 (Homo sapiens, UniProt P06870); assay: Inhibition of recombinant bovine enterokinase activated N-terminal His-tagged recombinant human KLK1 (19 to 262 residues) expressed in baculovirus infected Sf9 insect cells using 3',6'-bis(prolylphenylalanylarginylamino)3H-spiro(2-benzofuran-1,9'-xanthen)-3-one;TFA as substrate measured at 30 secs interval for 5 mins by fluorescence intensity assay
Neutrophil elastase = target: T2, Neutrophil elastase (Homo sapiens, UniProt P08246); assay: Inhibition of human neutrophil elastase using MeOSuc-AAPV-AMC as substrate after 40 mins by fluorescence intensity assay
T2 sequence (P08246 whole entry): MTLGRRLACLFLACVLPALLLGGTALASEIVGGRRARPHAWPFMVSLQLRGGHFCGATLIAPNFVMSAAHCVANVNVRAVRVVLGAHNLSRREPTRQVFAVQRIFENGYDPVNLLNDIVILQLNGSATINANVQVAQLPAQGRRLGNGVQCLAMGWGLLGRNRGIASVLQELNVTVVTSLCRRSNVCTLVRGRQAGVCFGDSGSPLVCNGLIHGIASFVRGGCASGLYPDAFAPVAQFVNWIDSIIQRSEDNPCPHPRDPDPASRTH

Homo sapiens [4] = species: Homo sapiens; assay: Selectivity index, ratio of compound effect for inhibition of recombinant C-terminal 10-His tagged human KLK14 (Gln19 to Met248 residues) expressed in mouse NS0 cells to compound effect for inhibition of recombinant 6His-Q-FLAG tagged human KLK5 expressed in baculovirus infected insect Sf9 cells
Coagulation factor X = Coagulation factor X (Homo sapiens, UniProt P00742); assay: Inhibition of recombinant C-terminal 10His-tagged human coagulation factor 10a (Leu24 to Lys488 residues) expressed in baculovirus infected Sf9 insect cells using Mca-RPKPVE-Nval-WRK(Dnp)-NH2 as substrate after 40 mins by fluorescence intensity assay
Plasma kallikrein = Plasma kallikrein (Homo sapiens, UniProt P03952); assay: Inhibition of recombinant C-terminal 6-His tagged human KLKB1 (Gly20 to Ala638 residues) expressed in mouse NS0 cells using P-F-R-AMC as substrate after 40 mins by fluorescence intensity assay
Kallikrein-14 = target: T3, Kallikrein-14 (Homo sapiens, UniProt Q9P0G3); assay: Inhibition of recombinant C-terminal 10His-tagged human KLK14 (Gln19 to Met248 residues) expressed in mouse NS0 cells using BOC-VPR-AMC as substrate after 40 mins by fluorescence intensity assay
T3 sequence (Q9P0G3 whole entry): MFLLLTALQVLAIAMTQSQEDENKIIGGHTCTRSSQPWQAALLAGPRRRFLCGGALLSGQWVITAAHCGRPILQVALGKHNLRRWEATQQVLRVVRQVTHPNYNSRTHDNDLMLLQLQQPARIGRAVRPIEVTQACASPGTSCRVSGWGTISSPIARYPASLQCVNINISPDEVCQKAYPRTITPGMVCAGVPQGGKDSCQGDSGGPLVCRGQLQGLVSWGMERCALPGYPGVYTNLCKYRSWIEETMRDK

[5] = Half life in pH 4 to 8 buffer at 0.05 mg/ml over 24 hrs; type: physicochemical
[6] = Solubility of the compound in pH 8 Britton-Robinson buffer at 24 hrs; type: physicochemical
Homo sapiens [7] = species: Homo sapiens; assay: Selectivity index, ratio of compound effect for inhibition of recombinant C-terminal 10-His tagged human urokinase (Met1 to Leu431 residues) expressed in mouse NS0 cells to compound effect for inhibition of recombinant 6His-Q-FLAG tagged human KLK5 expressed in baculovirus infected insect Sf9 cells
Homo sapiens [8] = species: Homo sapiens; assay: Selectivity index, ratio of compound effect for inhibition of recombinant human N-terminal met-His6-tagged matriptase catalytic domain (Gly596 to Val855 residues) expressed in Escherichia coli to compound effect for inhibition of recombinant 6His-Q-FLAG tagged human KLK5 expressed in baculovirus infected insect Sf9 cells

N=C(N)c1ccc(NCc2nc(-c3ccccc3)c[nH]2)cc1OCc1cccnc1
Selectivity Index (Homo sapiens [1]): > 100
IC50 (Kallikrein-8): 0.794 µM
Selectivity Index (Homo sapiens [2]): > 100
Selectivity Index (Homo sapiens [3]): > 100
IC50 (Kallikrein-1): 63.1 µM
IC50 (Neutrophil elastase): > 100 µM
Selectivity Index (Homo sapiens [4]): > 100
IC50 (Coagulation factor X): > 100 µM
IC50 (Plasma kallikrein): 6.31 µM
IC50 (Kallikrein-14): 3.98 µM
half-life at 0.05 mg/ml [5]: > 41.7 days
solubility at 24 h [6]: 180 µg/mL (≈ 452 µM)
Selectivity Index (Homo sapiens [7]): > 100
Selectivity Index (Homo sapiens [8]): > 100
